{"source": "patent US12569509B2", "about": "“Method and composition for preventing and treating viral infections” (priority 2017, dated 2026)", "key": {"human PBMC [1]": {"tested_on": "human PBMC", "test": "LPS stimulated cytokine secretion in human PBMC pretreated with compounds (Phase 2)", "assay_type": "cell-based", "set-up": "TNF-α concentration in supernatant / IL-1β concentration in supernatant / IL-6 concentration in supernatant / IL-2 concentration in supernatant / IFN-g concentration in supernatant: unit of the concentration uncertain", "conditions": "for Effect on LPS stimulated secretion of IL-1b / Effect on LPS stimulated secretion of IL-6: 200 mM (so in the source), 2 h pretreatment, 1 ng/mL LPS 8 hours; for IL-2 concentration in supernatant / TNF-α concentration in supernatant / IL-1β concentration in supernatant / IFN-g concentration in supernatant / IL-6 concentration in supernatant: 8-hour 1 ng/mL LPS stimulation; for IL-2 concentration in supernatant: LLOQ = 1.698 pg/mL; for TNF-α concentration in supernatant: LLOQ = 2.018 pg/mL; for IL-1β concentration in supernatant: LLOQ = 2.299 pg/mL; for IFN-g concentration in supernatant: LLOQ = 2.792 pg/mL; for IL-6 concentration in supernatant: LLOQ = 0.831", "source_text": "Results are represented as fold-change relative to LPS treatment alone for each cytokine calculated by means from 3 separate donors.\nRPMI medium alone, RPMI supplemented with 0.2% DMSO (to mimic treatment conditions) or LPS stimulation alone were used as controls.\nExcept for the two negative control conditions, all 3 donors responded to all experimental conditions tested with the secretion of TNF-α, IL-1β, and IL-6 albeit with a high degree of variability."}, "human PBMC [2]": {"tested_on": "human PBMC", "test": "Test compound induced cytokine secretion in human PBMC without LPS, 10 or 26 hours (Phase 1)", "conditions": "100 mM (so in the source), 10 hours, no LPS", "protocol": "Secretion of the cytokines TNF-α (A), IL-1β (B) and IL-6 (C) were measured in supernatant of PBMC cultured in the presence of test compounds using a Luminex platform with the Milliplex MAP Human High Sensitivity T Cell Panel Immunology Multiplex Assay. Results are represented as a mean from 3 separate donors in pg/mL.\nWhole blood was collected from 3 human donors and peripheral blood mononuclear cells (PBMC) were isolated using the Ficoll-Paque density gradient method. PBMC were then plated and left untouched for 2 hours to account for a 2 hours pretreatement period (see below for details), and incubated for 8 or 24 hours in a humidified incubator set to maintain 37° C. with 5% CO2, with different concentrations of LPS as per Table 11 in order to determine the optimal stimulation conditions to detect cytokine release. […] RPMI medium alone or supplemented with 0.1% DMSO (to mimic treatment conditions) were used as negative controls.\nAt the end of the incubation period, supernatant samples were recovered and stored at −80° C. until analysis (in duplicate) using a Luminex platform with the Milliplex MAP Human High Sensitivity T Cell Panel Immunology Multiplex Assay (Cat. No. HSTCMAG-28SK) with the following selected cytokines of interest: IL-1, IL-2, IL-6, IFN-g and TNF-α. Each assay was defined by one calibration curve and 2 sets of QCs and the results were expressed as pg/mL."}}, "note": "“Also recorded” adds a separate entry of the source."}
{"smiles": "O=C(O)c1cc(O)c(O)c(O)c1", "note": "[Gallic Acid, Gallic acid]", "values": [{"measurement": "Effect on LPS stimulated secretion of IL-1b", "setting": "human PBMC [1]", "result": "inhibition"}, {"measurement": "Effect on LPS stimulated secretion of IL-6", "setting": "human PBMC [1]", "result": "inhibition"}, {"measurement": "Effect on LPS stimulated secretion of IL-1b", "setting": "human PBMC [1]; listed as gallic acid", "result": "decrease; also recorded: inhibits"}, {"measurement": "Effect on LPS stimulated secretion of IL-6", "setting": "human PBMC [1]; listed as gallic acid", "result": "decrease; also recorded: inhibits"}, {"measurement": "IL-2 concentration in supernatant", "setting": "human PBMC [1]; Donor 1, 10 (unit uncertain)", "result": "<LLOQ"}, {"measurement": "TNF-α concentration in supernatant", "setting": "human PBMC [1]; Donor 1, 10 (unit uncertain)", "result": 2295.37, "unit": "pg/mL"}, {"measurement": "IL-1β concentration in supernatant", "setting": "human PBMC [1]; Donor 1, 10 (unit uncertain)", "result": 4009.57, "unit": "pg/mL"}, {"measurement": "IFN-g concentration in supernatant", "setting": "human PBMC [1]; Donor 1, 10 (unit uncertain)", "result": "<LLOQ"}, {"measurement": "IL-6 concentration in supernatant", "setting": "human PBMC [1]; Donor 1, 10 (unit uncertain)", "result": 1244.44, "unit": "pg/mL"}, {"measurement": "IL-2 concentration in supernatant", "setting": "human PBMC [1]; Donor 1, 100 (unit uncertain)", "result": "<LLOQ"}, {"measurement": "TNF-α concentration in supernatant", "setting": "human PBMC [1]; Donor 1, 100 (unit uncertain)", "result": 2673.83, "unit": "pg/mL"}, {"measurement": "IL-1β concentration in supernatant", "setting": "human PBMC [1]; Donor 1, 100 (unit uncertain)", "result": 2029.63, "unit": "pg/mL"}, {"measurement": "IFN-g concentration in supernatant", "setting": "human PBMC [1]; Donor 1, 100 (unit uncertain)", "result": "<LLOQ"}, {"measurement": "IL-6 concentration in supernatant", "setting": "human PBMC [1]; Donor 1, 100 (unit uncertain)", "result": 776.23, "unit": "pg/mL"}, {"measurement": "IL-2 concentration in supernatant", "setting": "human PBMC [1]; Donor 1, 200 (unit uncertain)", "result": "<LLOQ"}, {"measurement": "TNF-α concentration in supernatant", "setting": "human PBMC [1]; Donor 1, 200 (unit uncertain)", "result": 1973.87, "unit": "pg/mL"}, {"measurement": "IL-1β concentration in supernatant", "setting": "human PBMC [1]; Donor 1, 200 (unit uncertain)", "result": 905.16, "unit": "pg/mL"}, {"measurement": "IFN-g concentration in supernatant", "setting": "human PBMC [1]; Donor 1, 200 (unit uncertain)", "result": "<LLOQ"}, {"measurement": "IL-6 concentration in supernatant", "setting": "human PBMC [1]; Donor 1, 200 (unit uncertain)", "result": 466.09, "unit": "pg/mL"}, {"measurement": "IL-2 concentration in supernatant", "setting": "human PBMC [1]; Donor 2, 10 (unit uncertain)", "result": "<LLOQ"}, {"measurement": "TNF-α concentration in supernatant", "setting": "human PBMC [1]; Donor 2, 10 (unit uncertain)", "result": 924.89, "unit": "pg/mL"}, {"measurement": "IL-1β concentration in supernatant", "setting": "human PBMC [1]; Donor 2, 10 (unit uncertain)", "result": 2259.03, "unit": "pg/mL"}, {"measurement": "IFN-g concentration in supernatant", "setting": "human PBMC [1]; Donor 2, 10 (unit uncertain)", "result": "<LLOQ"}, {"measurement": "IL-6 concentration in supernatant", "setting": "human PBMC [1]; Donor 2, 10 (unit uncertain)", "result": 547.26, "unit": "pg/mL"}, {"measurement": "IL-2 concentration in supernatant", "setting": "human PBMC [1]; Donor 2, 100 (unit uncertain)", "result": "<LLOQ"}, {"measurement": "TNF-α concentration in supernatant", "setting": "human PBMC [1]; Donor 2, 100 (unit uncertain)", "result": 2001.65, "unit": "pg/mL"}, {"measurement": "IL-1β concentration in supernatant", "setting": "human PBMC [1]; Donor 2, 100 (unit uncertain)", "result": 1867.42, "unit": "pg/mL"}, {"measurement": "IFN-g concentration in supernatant", "setting": "human PBMC [1]; Donor 2, 100 (unit uncertain)", "result": "<LLOQ"}, {"measurement": "IL-6 concentration in supernatant", "setting": "human PBMC [1]; Donor 2, 100 (unit uncertain)", "result": 694.6, "unit": "pg/mL"}, {"measurement": "IL-2 concentration in supernatant", "setting": "human PBMC [1]; Donor 2, 200 (unit uncertain)", "result": "<LLOQ"}, {"measurement": "TNF-α concentration in supernatant", "setting": "human PBMC [1]; Donor 2, 200 (unit uncertain)", "result": 1867.55, "unit": "pg/mL"}, {"measurement": "IL-1β concentration in supernatant", "setting": "human PBMC [1]; Donor 2, 200 (unit uncertain)", "result": 858.76, "unit": "pg/mL"}, {"measurement": "IFN-g concentration in supernatant", "setting": "human PBMC [1]; Donor 2, 200 (unit uncertain)", "result": "<LLOQ"}, {"measurement": "IL-6 concentration in supernatant", "setting": "human PBMC [1]; Donor 2, 200 (unit uncertain)", "result": 426.3, "unit": "pg/mL"}, {"measurement": "IL-2 concentration in supernatant", "setting": "human PBMC [1]; Donor 3, 10 (unit uncertain)", "result": "<LLOQ"}, {"measurement": "TNF-α concentration in supernatant", "setting": "human PBMC [1]; Donor 3, 10 (unit uncertain)", "result": 4990.73, "unit": "pg/mL"}, {"measurement": "IL-1β concentration in supernatant", "setting": "human PBMC [1]; Donor 3, 10 (unit uncertain)", "result": 4065.13, "unit": "pg/mL"}, {"measurement": "IFN-g concentration in supernatant", "setting": "human PBMC [1]; Donor 3, 10 (unit uncertain)", "result": "<LLOQ"}, {"measurement": "IL-6 concentration in supernatant", "setting": "human PBMC [1]; Donor 3, 10 (unit uncertain)", "result": 547.26, "unit": "pg/mL"}, {"measurement": "IL-2 concentration in supernatant", "setting": "human PBMC [1]; Donor 3, 100 (unit uncertain)", "result": "<LLOQ"}, {"measurement": "TNF-α concentration in supernatant", "setting": "human PBMC [1]; Donor 3, 100 (unit uncertain)", "result": 3070.21, "unit": "pg/mL"}, {"measurement": "IL-1β concentration in supernatant", "setting": "human PBMC [1]; Donor 3, 100 (unit uncertain)", "result": 1788.4, "unit": "pg/mL"}, {"measurement": "IFN-g concentration in supernatant", "setting": "human PBMC [1]; Donor 3, 100 (unit uncertain)", "result": "<LLOQ"}, {"measurement": "IL-6 concentration in supernatant", "setting": "human PBMC [1]; Donor 3, 100 (unit uncertain)", "result": 694.6, "unit": "pg/mL"}, {"measurement": "IL-2 concentration in supernatant", "setting": "human PBMC [1]; Donor 3, 200 (unit uncertain)", "result": "<LLOQ"}, {"measurement": "TNF-α concentration in supernatant", "setting": "human PBMC [1]; Donor 3, 200 (unit uncertain)", "result": 4121.3, "unit": "pg/mL"}, {"measurement": "IL-1β concentration in supernatant", "setting": "human PBMC [1]; Donor 3, 200 (unit uncertain)", "result": 1478.91, "unit": "pg/mL"}, {"measurement": "IFN-g concentration in supernatant", "setting": "human PBMC [1]; Donor 3, 200 (unit uncertain)", "result": "<LLOQ"}, {"measurement": "IL-6 concentration in supernatant", "setting": "human PBMC [1]; Donor 3, 200 (unit uncertain)", "result": 426.3, "unit": "pg/mL"}, {"measurement": "TNF-α, IL-1β, and/or IL-6 production, compound alone", "setting": "human PBMC [2]", "result": "minor increases"}]}
